Reference: patent US20020169123A1, “Regulating apoptosis in TRAIL-resistant cancer cells, while protecting normal, non-cancerous cells” (THE TRUSTEES OF THE UNIVERSITY OF PENNSYLVANIA, priority 2001, published 2002)

Assays:
[1] = system: EPC2-GFP and TRAIL-sensitive TE2 mixed culture; test: active-caspase 3 assay in mixed culture; type: cell-based, human; conditions: TRAIL 4 hours with z-LEHD-FMK
Protocol: Finally, to confirm the observation that there was preferential protection of z-LEHD-FMK on normal esophageal epithelial cells in TRAIL-mediated apoptosis, but no similar protection afforded to TRAIL-sensitive esophageal cancer cells, both EPC2-GFP (2×10^5 cells) and TRAIL-sensitive TE2 (5×10^5 cells) were grown as a mixed culture in a 6-well plate. The cells were treated with TRAIL for 4 hours in the presence, or absence, of z-LEHD-FMK. An active-caspase 3 assay was performed, and the two populations within the mixed-cells were distinguished by the presence (EPC2-GFP), or absence (TE2), of GFP. […] Experiments were done in duplicate (mean value±SD).

[2] = system: TRAIL-resistant HCE4, TE3, and TE5 cells; test: active-caspase 3 assay, adriamycin plus TRAIL; type: cell-based, human; conditions: z-LEHD-FMK 20 μM added 2 hours before TRAIL
Protocol: Cells were treated with TRAIL (50 ng/mL final concentration) and 1 μg/mL of anti-6× His (N-terrninal histidine antibody) for 4 hours or for 16 hours. The caspase inhibitor was used at a final concentration of 20 μM, and was added 2 hours prior to the addition of TRAIL. When the cells were treated with both cycloheximide (CHX) and TRAIL, CHX (10 μg/mL final concentration) was added 6 hours before the addition of TRAIL. In the case of adriamycin, cells were pre-treated with adriamycin (0.5 μM final concentration) for 16 hours before the addition of TRAIL.
(§1) For detecting apoptosis mediated by TRAIL, an active-caspase 3 assay was performed using Cytofix/Cytoperm kit (Pharmingen, San Diego, Calif.), as previously described (Kim et al., Int. J. Oncol. 18:241-247 (2001)). Briefly, using standard techniques, 5×10^5 cells were seeded into a 6 well plate, after which, the cells were treated with TRAIL cross-linked with anti-6× His antibody. […] After washing, the cells were probed with 0.125 μg/μl of Phycoerythrin (PE)-conjugated goat anti-rabbit secondary antibody (Ab) (CALTAG Laboratories, Burlingame, Calif.) for 20 minutes in the dark. The intensity of PE was analyzed by flow cytometry using a Beckman-Coulter Epics Elite analyzer.
Accordingly, adriamycin was tested to determine whether its combination with TRAIL could induce synergistic cell killing in TRAIL-resistant esophageal cancer cells. TRAIL-resistant HCE4, TE3, and TE5 cells were pre-treated with 0.5 μM adriamycin for 16 hours, followed by incubation for 4 hours in the presence of TRAIL. z-LEHD-FMK (20 μM final concentration) was added 2 hours before the addition of TRAIL. An active-caspase 3 assay was used to determine whether apoptosis occurred.
Next, z-LEHD-FMK was tested in the HCE4, TE3 and TE5 cells to determine the protective effect of z-LEHD-FMK, if any, on the synergistic cell death driven by the combination of adriamycin with TRAIL.

[3] = system: EPC2 normal esophageal epithelial cells
Protocol: Normal human primary epithelial cells (EPC2, provided by Dr. Anil Rustgi, University of Pennsylvania) and primary human foreskin keratinocytes (HFK, provided by Dr. John C. Ansel, Emory University), were grown in Keratinocyte-SFM medium (Gibco BRL, Rockville, Md.) containing bovine pituitary extract (40 μg/mL) and epidermal growth factor (1 ng/mL). The primary epithelial cells were used at passage 4 or 5.
The N-terminal histidine (His) tagged recombinant human TRAIL (rhTRAIL, Thr-95 to Gly-281) was obtained from R&D Systems (Minneapolis, Minn.). A mouse monoclonal anti-6× His antibody (R&D Systems) was used for cross-linking the rhTRAIL. […] Cells were treated with TRAIL (50 ng/mL final concentration) and 1 μg/mL of anti-6× His (N-terrninal histidine antibody) for 4 hours or for 16 hours. The caspase inhibitor was used at a final concentration of 20 μM, and was added 2 hours prior to the addition of TRAIL. […] In the case of adriamycin, cells were pre-treated with adriamycin (0.5 μM final concentration) for 16 hours before the addition of TRAIL.
as §1

normal human hepatocytes = conditions: Ozoren et al., 2000; cited from earlier work
[4] = system: normal esophageal epithelial EPC2 cells; test: effect of Ad-ILZ-TR derived TRAIL; type: cell-based; conditions: EPC2 cells in the presence of z-LEHD-FMK
Excerpt: To make an adenovirus expressing extra-cellular portion of TRAIL (amino acids (Aa) 95 to 281), pAdTRACK/CMV and pAdEasy systems were used as previously described (He et al., Proc. Natl. Acad. Sci. USA 95:2509-2514 (1998)). In short, the extra-cellular portion of TRAIL was amplified by PCR (polymerase chain reaction). The amplified fragment was fused directly to the signal peptide of a mouse Ig κ chain, which is secreted into the media from the cells. Then, an isoleucine zipper (ILZ) fragment was inserted between the signal peptide and TRAIL to induce self-trimerization (Harbury et al., Science 262:1401-1407 (1993)). The final resulting construct was cloned into pAdTRACK/CMV, and then a recombinant plasmid was generated in BJ5183 E. coli by co-transforming PmeI-digested TRAIL-cloned pAdTRACK/CMV and pAdEASY.
The recombinant plasmid was digested with PacI, and was used for transfection into […] 293 cells using Superfect (QIAGEN, Valencia, Calif.). Approximately five (5) days after transfection, when comet-like patches of the green cells appeared, the cells were harvested. The viruses were amplified and purified as previously described (El-Deiry et al., Cell 75:817-825 (1993)). The infectivity of the viruses was checked by the observation of green fluorescence using a fluorescence microscope. […]

[5] = system: TRAIL-sensitive esophageal cancer cells; test: active-caspase 3 assay, effect of z-LEHD-FMK on TRAIL-sensitive cancer cells; type: cell-based, human; conditions: extent of apoptosis slightly reduced
Protocol: Next, to determine the effect of z-LEHD-FMK on TRAIL-sensitive esophageal cancer cells (i.e., could z-LEHD-FMK also protect TRAIL-sensitive esophageal cancer cells from apoptosis), an active-caspase 3 assay was performed, as described above in the assay shown in FIG. 4A.

For “z-LEHD-FMK (HELM PEPTIDE1{[O=C(OCc1ccccc1)[*:2]].L.E.H.D.[FC[*:1]]}$$$$V2.0; SMILES CC(C)C[C@H](NC(=O)OCc1ccccc1)C(=O)N[C@@H](CCC(=O)O)C(=O)N[C@@H](Cc1c[nH]cn1)C(=O)N[C@@H](CC(=O)O)C(=O)CF)”, which “TRAIL-mediated apoptosis in presence of z-LEHD-FMK, TE2 population” value ([1]; mixed culture with EPC2-GFP) is on record?
The value was “continued to undergo apoptosis”.

What about the “protection from TRAIL-mediated apoptosis, EPC2-GFP population” value ([1]; mixed culture with TE2) of the same substance?
The value was “almost completely protected”.

What about the “effect of z-LEHD-FMK on cell death by adriamycin plus TRAIL” value ([2]; HCE4 cells) of the same substance?
Its value is “still killed in a synergistic way”.

What about the “effect of z-LEHD-FMK on cell death by adriamycin plus TRAIL” value ([2]; TE3 and TE5 cells) of the same substance?
The value was “almost completely blocked cell death”.

What about the “protection from cell killing by TRAIL plus adriamycin” value ([3]; EPC2 cells in the presence of z-LEHD-FMK) of the same substance?
Its value is “almost completely protected from cell killing”.

And the “protection from TRAIL-mediated apoptosis” value ([3]; EPC2 cells, TRAIL 50 ng/mL 4 hours, z-LEHD-FMK 20 μM added 2 hours before TRAIL)?
Its value is “completely protected”.

What about the “rescue from TRAIL-mediated apoptosis” value (normal human hepatocytes) of the same substance?
The value was “could rescue normal human hepatocytes”.

What about the “protection from cell death by Ad-ILZ-TR derived TRAIL” value [4] of the same substance?
The value was “completely protected from cell death”.

What about the “effect of z-LEHD-FMK on TRAIL-mediated apoptosis” value [5] of the same substance?
Its value is “still underwent apoptosis”.
